Experimental data taken from patent US20020183327A1, “Bicyclic imidazo-3-yl-amine derivatives substituted on the 6-membered ring” (GRUENENTHAL GMBH., priority 1999, published 2002).

system: α2-subtype of the human α-adrenergic receptor; test: SPA assay, affinity for the α2-subtype of the human α-adrenergic receptor; format: binding; settings: at a concentration of 10 μM
Procedure: The affinity for the α2-subtype of the human α-adrenergic receptor was determined by means of a SPA assay conventionally used for high throughput screening as described in John P. Devlin, High Throughput Screening, Marcel Dekker Inc. 1997, pp. 307 to 316. This literature is introduced here as a reference and thus forms part of the disclosure. At a concentration of 10 μM, the following affinities for the listed examples were determined: […]

Compound | α2-affinity, 10 μM
[C-]#[N+]CCCCCCNc1c(C2CCCCC2)nc2cccc(C)n12 [Example 16] | 67%
Cc1cc(C)n2c(NC3CCCCC3)c(C)nc2c1 [Example 19, cyclohexyl-(2,5,7-trimethylimidazo[1,2-a]pyridin-3-yl)-amine] | 81%
Cc1ccc2nc(C)c(NC(C)(C)CC(C)(C)C)n2c1 [Example 17, (2,6-dimethylimidazo[1,2-a]pyridin-3-yl)-(1,1,3,3-tetramethylbutyl)-amine] | 65%
Cc1ccn2c(NC(C)(C)CC(C)(C)C)c(C)nc2c1 [Example 21, (2,7-dimethylimidazo[1,2-a]pyridin-3-yl)-(1,1,3,3-tetramethylbutyl)-amine] | 109%
Cc1cc(C)n2c(NC(C)(C)CC(C)(C)C)c(C)nc2c1 [Example 23, (1,1,3,3-tetramethylbutyl)-(2,5,7-trimethylimidazo[1,2-a]pyridin-3-yl)-amine] | 97%
Cc1nc2c(C)cccn2c1NC(C)(C)CC(C)(C)C [Example 22, (2,8-dimethyl-imidazo[1,2-a]pyridin-3-yl)-(1,1,3,3-tetramethylbutyl)-amine] | 69%
[C-]#[N+]CCCCCCNc1c(-c2ccccc2OC)nc2ccc(C)cn12 [Example 25, (6-isocyanohexyl)-[2-(2-methoxyphenyl)-6-methyl-imidazo[1,2-a]pyridin-3-yl]-amine] | 51%
FC(F)(F)c1ccc2nc(-c3ccco3)c(NC3CCCCC3)n2c1 [Example 26, cyclohexyl-(2-furan-2-yl-6-trifluoromethylimidazo[1,2-a]pyridin-3-yl)-amine] | 70%
Cc1ccn2c(NC3CCCCC3)c(C)nc2c1 [Example 18, cyclohexyl-(2,7-dimethylimidazo[1,2-a]pyridin-3-yl)-amine] | 74%
Cc1nc2c(OCc3ccccc3)cccn2c1NC(C)(C)CC(C)(C)C [Example 29, (8-benzyloxy-2-methylimidazo[1,2-a]pyridin-3-yl)-(1,1,3,3-tetramethylbutyl)-amine] | 100%
[C-]#[N+]CCCCCCNc1c(-c2ccc(OC)c(OC)c2)nc2cc(C)ccn12 [Example 24, [2-(3,4-dimethoxyphenyl)-7-methylimidazo[1,2-a]pyridin-3-yl]-(6-isocyanohexyl)-amine] | 75%
[C-]#[N+]CCCCCCNc1c(-c2ccc(OC)c(OC)c2)nc2ccc(C)cn12 [Example 20, [2-(3,4-dimethoxyphenyl)-6-methylimidazo[1,2-a]pyridin-3-yl]-(6-isocyanohexyl)-amine] | 85%

Continued, values first:

α2-affinity, 10 μM | Compound
73% | CC(=O)N(c1c(-c2ccco2)nc2c(Cl)cc(Cl)cn12)C1CCCCC1 [Example 33, N-cylcohexyl-N-(6,8-dichloro-2-furan-2-yl-imidazo[1,2-a]pyridin-3-yl)-acetamide]
75% | CC(=O)N(c1c(C2CCCCC2)nc2c(OCc3ccccc3)cccn12)C1CCCCC1 [Example 35, N-(8-benzyloxy-2-cyclohexylimidazo[1,2-a]pyridin-3-yl)-N-cyclohexyl-acetamide]
60% | COC(=O)CNc1c(C2CCCCC2)nc2c(OCc3ccccc3)cccn12 [Example 30, (8-benzyloxy-2-cyclohexylimidazo[1,2-a]pyridin-3-ylamino)-acetic acid methyl ester]
61% | CCCCNc1c(C2CCCCC2)nc2cccc(CCC)n12 [Example 32, Butyl-(2-cyclohexyl-5-propylimidazo[1,2-a]pyridin-3-yl)-amine]
72% | CC(=O)N(c1c(-c2ccco2)nc2ccc(C(F)(F)F)cn12)C1CCCCC1 [Example 34, N-cylcohexyl-N-(2-furan-2-yl-6-trifluoromethylimidazo[1,2-a]pyridin-3-yl)-acetamide]
61% | COC(=O)CNc1c(C)nc2c(OCc3ccccc3)cccn12 [Example 31, (8-benzyloxy-2-methylimidazo[1,2-a]pyridin-3-ylamino)-acetic acid methyl ester]
